Measurements from PubChem BioAssay (NCI).
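96-well plates; 48 h exposure; 5 concentrations. Endpoints by linear interpolation between flanking doses. Not reached: highest tested concentration assigned. TGI: concentration producing complete growth inhibition.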

Columns and labels:
Experiment in all cases: NCI tumour cell line growth inhibition, 48 h
786-0 renal = tested on: 786-0 renal
DU-145 prostate = tested on: DU-145 prostate
HS 578T breast = tested on: HS 578T breast
BT-549 breast = tested on: BT-549 breast
OVCAR-4 ovarian = tested on: OVCAR-4 ovarian
SNB-78 CNS = tested on: SNB-78 CNS
XF 498 CNS = tested on: XF 498 CNS
P388 leukemia = tested on: P388 leukemia
P388/ADR leukemia = tested on: P388/ADR leukemia
SN12K1 renal = tested on: SN12K1 renal
LXFL 529 NSCLC = tested on: LXFL 529 NSCLC

| Compound | TGI (786-0 renal) | TGI (DU-145 prostate) | TGI (HS 578T breast) | TGI (BT-549 breast) | TGI (OVCAR-4 ovarian) | TGI (SNB-78 CNS) | TGI (XF 498 CNS) | TGI (P388 leukemia) | TGI (P388/ADR leukemia) | TGI (SN12K1 renal) | TGI (LXFL 529 NSCLC) |
| --- | --- | --- | --- | --- | --- | --- | --- | --- | --- | --- | --- |
| CC(=O)O/C(=C1\C[C@H]2[C@@H]3CC=C4C[C@@H](OC(C)=O)CC[C@]4(C)[C@H]3CC[C@]2(C)C1=O)C(F)(F)F | 20.6 µM | 25.2 µM | 20.8 µM | 34.7 µM | 61.4 µM | – | – | – | – | – | – |
| COc1cc(N=Nc2cccc(S(=O)(=O)O)c2)ccc1N=Nc1ccc(/C=C/c2ccc(-n3on3-c3ccc(/C=C/c4ccc(N=Nc5ccc(N=Nc6cccc(S(=O)(=O)O)c6)cc5OC)cc4S(=O)(=O)O)c(S(=O)(=O)O)c3)cc2S(=O)(=O)O)c(S(=O)(=O)O)c1 | – | – | – | – | > 100 µM | > 100 µM | > 100 µM | > 100 µM | > 100 µM | > 100 µM | – |
| N#CC(OC1OC(COC2OC(CO)C(O)C(O)C2O)C(O)C(O)C1O)c1ccccc1 (centres undefined) | – | – | – | – | > 225 µM | > 225 µM | > 225 µM | > 225 µM | > 225 µM | > 225 µM | – |
| CN1C(=O)CSC1=S | > 100 µM | – | – | – | > 100 µM | > 100 µM | – | – | – | – | > 100 µM |
| COc1cccc2cc(C(=O)O)c(=O)oc12 | > 100 µM | > 100 µM | > 100 µM | > 100 µM | > 100 µM | – | – | – | – | – | – |
| O=C(O)C1C2C=CC(C2)C1c1ccccc1 (centres undefined) | > 100 µM | > 100 µM | > 100 µM | – | – | – | – | – | – | – | – |
